Assay results published in the METLIN SMRT retention time set (Domingo-Almenara et al. 2019).

Assay: gradient 5% acetonitrile 3 min, to 50% in 2 min, to 85% in 15 min, held 3 min, 100 µL/min
Settings: column: Zorbax Extend-C18 2.1 x 50 mm; eluents: water / acetonitrile, 0.1% formic acid
Procedure, shortened: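 A Zorbax Extend-C18 column (2.1 × 50 mm, 1.8 μm) run at 100 μL/min with water and acetonitrile, both containing 0.1% formic acid, separated mixtures of ~100 pure standards. The HPLC was coupled to a quadrupole time-of-flight mass spectrometer operated in positive and negative ionization mode, with dead and dwell volumes of 40 μL and 900 μL. Each retention time was taken from a computationally picked adduct peak that was then manually inspected.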

Row | Structure (SMILES) | RP-LC retention time [s]
1 | Cc1ccc(-c2noc(CSc3nccn3-c3ccccc3)n2)cc1 | 938
2 | COc1cc(Cl)c(CC2C(=O)Nc3ccccc32)cc1OC (stereo not given) | 900
3 | O=C(c1nnc(-c2ccc(S(=O)(=O)N3CCOCC3)cc2)o1)N1CCN(c2ccccc2)CC1 | 905
4 | Cn1ncc(NC(=O)c2ccc(Br)cc2)c(N2CCOCC2)c1=O | 814
5 | Cn1ncc2c(Nc3ccccc3Cl)nc(Cl)nc21 | 891
6 | CCOc1ccc(NC(=O)c2cc(C)n3nccc3n2)cc1 | 917
7 | CC1CCc2nc(NC(=O)c3cc(Cl)sc3Cl)sc2C1 (stereo not given) | 1170
8 | Cc1ccc(C(=O)N2CCC3(CC2)NC(=O)c2ccc(F)cc2N3C)cc1 | 763
9 | CCNc1cc(N2CCC(CCC(=O)Nc3ccc(C)cc3C)CC2)ncn1 | 686
10 | O=C(NCCc1ccccc1)N1CCC(c2noc(-c3ccccn3)n2)C1 (stereo not given) | 742
11 | Cc1ccc(-c2ncc(C(=O)NC(C)c3ccccn3)c(-c3ccncc3)n2)cc1 (stereo not given) | 685
12 | COCCCNC(=O)C1CCCN(c2cnc3nccnc3c2)C1 (stereo not given) | 602
13 | Cc1ccc(-n2nc(N3CCCN(C(=O)Nc4cccc(C)c4)CC3)ccc2=O)cc1 | 802
14 | CCCCc1ccc(NC(=O)Cn2cnc3c(sc4nc(-c5ccccc5)ccc43)c2=O)cc1 | 1260
15 | O=C(c1ccc(F)cc1)N1CCN(c2nc(CN3CCOCC3)cs2)CC1 | 597
16 | Cc1nc(-c2cn(C)c3ncccc23)sc1C(=O)Nc1cc(F)ccc1F | 944
17 | O=C(C1CCN(S(=O)(=O)c2ccc(-c3noc(COc4ccccc4)n3)cc2)CC1)N1CCCC1 | 961
18 | Cn1nc(C(=O)N2CCCC(C(=O)Nc3ccccc3)C2)c2c1CCN(C(=O)c1ccco1)C2 (stereo not given) | 717
19 | O=C(CCn1cnc2cc(-c3noc(-c4ccc(Br)o4)n3)ccc21)N1CCCCC1 | 796

Row | Structure (SMILES) | RP-LC retention time [s]
20 | CN(C)CCN(C(=O)CN1C(=O)c2ccccc2C1=O)c1nc2ccc(Cl)cc2s1 | 616
21 | Cc1cccc2c1ncn1c(=O)n(CC(=O)Nc3ccc4c(c3)OCCO4)nc21 | 637
22 | COc1cc(CNC(=O)Cn2ccc3c(=O)n(C)c(=O)n(C)c32)cc(OC)c1 | 662
23 | O=C(CN1CCN(S(=O)(=O)c2ccccc2)CC1)Nc1ccc(Br)cc1 | 722
24 | CCNC(=O)c1n[nH]c2c1CCCC2 | 641
25 | Cc1ccc(S(=O)(=O)N2C(=O)CCC2C(=O)Nc2cccc3ccccc23)cc1 (stereo not given) | 933
26 | O=C(Nc1ccc(-c2cn3cccnc3n2)cc1)c1ccc(F)c(F)c1 | 647
27 | CN(C(=O)c1ccc2c(c1)OCO2)C1CCc2nn(CC3CC3)c(=O)n2CC1 (stereo not given) | 670
28 | O=C(Cn1nc(N2CCCC2)c2ccccc2c1=O)NCc1ccccc1 | 837
29 | O=C(Nc1ccccc1)C1(CCO)CCN(Cc2ccccc2)C1 (stereo not given) | 624
30 | CS(=O)(=O)NCC1CCC(C(=O)Nc2ccc3c(c2)Cc2ccccc2-3)CC1 (stereo not given) | 840
31 | CCCCNC(=O)CC1CCN(C(=O)c2[nH]c(C)c(C)c2C)CC1 | 764
32 | Nc1cc(C2CCN(C(=O)Nc3cccc(Cl)c3F)CC2)no1 | 676
33 | O=C(NCc1ccco1)N1CC2CN(S(=O)(=O)c3cccc(F)c3)CC(C1)O2 | 744
34 | Cn1cccc1C(=O)C(=O)Nc1cccc(Br)c1 | 1040
35 | COCCn1nc2n(c1=O)CCN(C(=O)c1ccco1)CC2 | 585
36 | O=C(Nc1cccc(Cl)c1)N1CCN(c2ncc(C(F)(F)F)cc2Cl)CC1 | 1190
37 | COC(=O)c1c(NCCc2ccc(Cl)cc2)c2cc(F)ccc2[nH]c1=O | 857
38 | CCN1C(=O)C(C)(C(=O)Nc2ccccc2F)Oc2cccnc21 (stereo not given) | 855

Row | Structure (SMILES) | RP-LC retention time [s]
39 | COc1cccc(-c2nc(N3CCCCC3)ncc2C(=O)O)c1 | 950
40 | O=C(NCc1ccc(F)cc1)NC1CCCN(c2cc(-c3ccncc3)[nH]n2)C1 (stereo not given) | 610
41 | O=C(Nc1ccc(Cl)cc1)N1CCCC1c1nc(-c2ccc(F)cc2F)no1 (stereo not given) | 1040
42 | CCCn1cc(-c2ccncc2)cc1C(=O)Nc1ccc2c(c1)OCCO2 | 679
43 | O=C(c1c(F)cccc1F)N1CCC2(CC1)N=C(c1ccc(Cl)cc1)NO2 | 847
44 | CCCn1c(=O)c(C)nc2cc(-c3noc(-c4ccc(OC)c(OC)c4)n3)ccc21 | 1090
45 | CCNC(=O)C1CCN(C(=O)N2C[C@H]3C[C@H](C2)[C@H]2CCCC(=O)N2C3)CC1 | 599
46 | COc1ccc(NC(=O)Cn2c(=O)c(CCC(=O)NCC(C)C)nc3ccccc32)cc1OC | 756
47 | CCCn1cc(S(=O)(=O)N2CCN(c3cccc(Cl)c3)CC2)c2cccnc21 | 761
48 | COC(=O)c1cccc(Nc2c(-c3ccc(F)cc3)nc3cnccn23)c1 | 830
49 | CC(C)NC(=O)C1CCCCN1S(=O)(=O)c1ccc(Br)cc1 (stereo not given) | 969
50 | OC(COc1ccccc1)CN1CCN(c2ccccc2)CC1 (stereo not given) | 724
51 | Cn1c(=O)sc2cc(S(=O)(=O)N3CCC(C(=O)Nc4ccccn4)CC3)ccc21 | 684
52 | CN(Cc1cccnc1)C(=O)C12CCC=C1N(C1CCCC1)C(=O)CC2 (stereo not given) | 577
53 | O=C(CCSc1ccc(F)cc1)Nc1nc2c(s1)CCC2 | 878
54 | O=C(NCc1ccccc1)N1CCN(c2ccc(-c3cccs3)nn2)CC1 | 639
55 | CN(C)c1nccnc1OC1CCN(C(=O)c2ccnn2C)C1 (stereo not given) | 634
56 | Cc1cc(NCCCC(=O)NC2CCCCC2)n2nc(-c3cccnc3)nc2n1 | 646
57 | c1ccc(-c2csc(Nc3nc(NCc4ccco4)nc(N4CCCCC4)n3)n2)cc1 | 1210

Results, then the molecule that gave them:

Row | RP-LC retention time [s] | Structure (SMILES)
58 | 571 | Cn1c(CNc2nc3ccncc3n(Cc3ccccc3)c2=O)nc2ccccc21
59 | 746 | COCCCNC(=O)C1(c2ccc(NC(=O)c3cccs3)cc2)CC1
60 | 826 | COc1ccc(-c2noc(C3CCCN3C(=O)Nc3ccccc3OC)n2)cc1 (stereo not given)
61 | 818 | Cc1cccc(-c2noc(C3CCCN3C(=O)NCC3CCCO3)n2)c1 (stereo not given)
62 | 928 | Cc1ccc(Nc2c(-c3ccc(C(=O)O)cc3)nc3cnccn23)c(C)c1
63 | 1130 | CCN1C(=O)COc2ccc(-c3noc(-c4ccc(OC)cc4)n3)cc21
64 | 1070 | CCOc1cccc(-c2noc(Cn3c(=O)n(-c4ccccc4C)c(=O)c4sccc43)n2)c1
65 | 694 | COc1nccnc1N1CCC(N(C)C(=O)c2ccc3c(c2)OCO3)C1 (stereo not given)
66 | 935 | COc1ccc(NC(=O)N2c3ccccc3CC2c2nc(C(C)C)no2)cc1OC (stereo not given)
67 | 547 | Cn1cccc(C(=O)NC2CC(=O)N(C3CC3)C2)c1=O (stereo not given)
68 | 644 | Cc1cccc(S(=O)(=O)Nc2cccc(-c3cn4ccccc4n3)c2)c1
69 | 636 | Cc1cnc(NC(=O)c2ccc(N3CCCC3)nn2)s1
70 | 867 | COc1ccc(CCC(=O)N2CCC3(CC2)C(=O)N(C)c2ccccc23)cc1
71 | 745 | CCOc1ccc(NC(=O)CSc2nc(N3CCCCC3)nc3ccccc23)cc1
72 | 678 | O=C(COc1ccccc1)NCc1c(-c2ccccc2)nc2n1CCS2
73 | 764 | CCS(=O)(=O)c1ccc(-c2ccc(NC(=O)Cc3ccc(F)cc3)cc2)nn1
74 | 681 | Cc1ccc(-c2csc(NC(=O)CN3CCN(C(=O)C4CCCO4)CC3)n2)cc1 (stereo not given)

Row | RP-LC retention time [s] | Structure (SMILES)
75 | 870 | CC1=C(c2ccc(Cl)cc2)S(=O)(=O)N=C1N1CCC(C(=O)NCCc2ccco2)CC1
76 | 870 | CCC(C)NC(=O)CN1c2ccc(F)cc2-c2ccccc2S1(=O)=O (stereo not given)
77 | 853 | Cc1ccc(NC(=O)NC2CCN(c3ccccc3)C2=O)cc1C (stereo not given)
78 | 654 | Cc1nnc(NC(=O)CSc2nnc(-c3cccs3)o2)s1
79 | 1110 | C=CCN(Cc1nc(-c2ccc(C)cc2)no1)C(=O)Nc1cccc(C)c1
80 | 768 | COc1cccc(NC(=O)Cn2nc3nc(N4CCCC(C)C4)ccn3c2=O)c1 (stereo not given)
81 | 596 | O=C1Nc2ccccc2SC1C(=O)N1CCC(C(=O)N2CCN(c3ccccn3)CC2)CC1 (stereo not given)
82 | 806 | COCCCNC(=O)C1(C)Cn2nc(-c3ccccc3)cc2C(=O)N1c1ccc(F)cc1 (stereo not given)
83 | 709 | O=c1c2ccccc2c(-c2nc(-c3cccnc3)no2)cn1-c1cccc(F)c1
84 | 567 | Cc1nnc(CNC(=O)c2cccc(-n3cnnn3)c2)o1
85 | 884 | CCn1cc(-c2nc(C)c(C(=O)NCc3cc(F)cc(F)c3)s2)c2cccnc21
86 | 953 | Cc1cc(=O)n(CC(=O)Nc2ccc(Br)cc2F)c(N2CCc3ccccc3C2)n1
87 | 996 | COc1ccccc1-c1noc(C2CCCN2C(=O)c2ccc(C)s2)n1 (stereo not given)
88 | 592 | O=C(CCCN1C(=O)c2cccnc2Sc2ccccc21)N1CCN(c2ccccn2)CC1
89 | 703 | Cc1ccc(Cc2nc(-c3ccc4c(c3)nnn4CCN3CCOCC3)no2)cc1
90 | 561 | Cc1noc(C)c1CNC(=O)c1ccc2nc[nH]c2c1
